According to patent publication US9878054B2, “Polypeptide and lipophilic moiety conjugate compositions, formulations, and uses related thereto” (Tufts Medical Center, Inc., priority 2012, dated 2018):
Where a SMILES comes first, the peptide text is derived from it. The star is where a group is joined. Palmitoyl = CCCCCCCCCCCCCCCC(=O)*

Legend:
[1] = system: human platelets (ADP); test: Human platelet aggregation, ADP; type: cell-based; conditions: 20 μM ADP
Experimental: A, Depiction of the mechanism of action of the cell-penetrating PZ-128 pepducin compound targeting the third intracellular loop (red) of PAR1. B, The NMR structure of PZ-128 was determined by simulated annealing methods using 210 distance restraints and included restraints to the proximal 3 hydrocarbons of the lipid. […] D, PZ-128 inhibits PAR1-dependent platelet aggregation. Gel filtered human platelets were treated with various concentrations of PZ-128 and then challenged with the PAR1 agonist SFLLRN (2.5 μM), 20 μM ADP, 200 μM AYPGKF or 1 mg/ml Ristocetin. E, Human platelets were treated with 3 μM PZ-128, 3 μM RWJ-56110, or 5% dextrose vehicle before the addition of various concentrations of thrombin (n=3-5).
PZ-128 also markedly right-shifted thrombin-induced aggregation by 5-fold. By comparison, the small molecule RWJ-56110 which antagonizes PAR1 at the extracellular ligand-binding site gave a 2-fold right shift in the thrombin activation curve of human platelets.
Whole blood from healthy donors was collected into a 30 ml syringe containing sodium citrate (0.4% vol/vol final). Platelets were isolated from platelet rich plasma (PRP) using Sepharose 2B columns in modified PIPES buffer.

[2] = system: guinea pig platelets (thromboxane mimetic U46119); test: Guinea pig ex vivo platelet aggregation to thromboxane mimetic U46119 after iv infusion; type: in vivo; conditions: 3 or 6 mg/kg iv, 20 μM U46119
Experimental: PZ-128 or 5% dextrose USP vehicle was infused for 10 min into the jugular vein of male and female guinea pigs (0.55-0.65 kg). A-C, At the 15 min time point, whole blood was collected by cardiac puncture in 100 μg/ml PPACK/4% Na-citrate (final) anti-coagulant and platelet rich plasma (PRP) prepared and aggregation measurements were performed. […] B-C, PRP obtained at the 15 min time point after infusion with vehicle, 3 mg/kg PZ-128 or 6 mg/kg PZ128 was challenged with 2.5 μM SFLLRN, 20 μM ADP or 20 μM thromboxane mimetic, U46119. Individual data points (n=3) are overlayed on bar graphs depicting mean±SD. […] Data in B-D were analyzed by the non-parametric Kruskal-Wallis test with the Dunn's multiple pairwise comparison post-test.
PZ-128 micelles were delivered by internal jugular vein infusions over 10 min.
Guinea pigs weighing 600-650 g were used for platelet aggregation experiments. PZ-128 micelles (3 or 6 mg/kg) were administered by a 10 min intravenous infusion, and blood was collected by cardiac puncture into sodium citrate (0.4% vol/vol final) 5 minutes after cessation of the infusion. PRP was prepared and PPACK added to a final concentration of 100 μg/ml. PRP was calcified with 2.5 mM CaCl2 and aggregation was performed as described above.

[3] = system: PAR4; test: Baboon ex vivo platelet aggregation, AYPGKF (PAR4); type: in vivo; conditions: any dose, any time point
Experimental: A-C, Male baboons (10-12 kg) were administered 1, 3 or 6 mg/kg PZ-128, or 5% dextrose USP vehicle by iv infusion and blood collected into 100 μg/ml PPACK anticoagulant at 0, 1, 2, 6, or 24 h time points. Light transmission platelet aggregometry was performed with platelet rich plasma with the indicated agonists (SFLLRN for PAR1, AYPGKF for PAR4 and ADP for P2Y12 and P2Y1). Data are reported as mean±SD (n=3-7) relative to time 0 controls (0%) and were analyzed by repeated measures one-way ANOVA with Bonferroni post-test correction; *P<0.05, **P<0.01 relative to time 0. Global P values were >0.05 for 1 mg/kg, 0.004 for 3 mg/kg, <0.0001 for 6 mg/kg. D, Pharmacokinetics of 3 and 6 mg/kg 45-min iv infusions of PZ-128 in male baboons. Plasma PZ-128 levels were measured by LC/MS/MS at 9 sequential time points: baseline, 15 min, 30 min, 1 h, 2 h, 4 h, 8 h, 24 h and 48 h after the start of infusion. Open symbols indicated plasma concentrations that were under the measurement threshold (5 ng/ml).
The anti-platelet effects of PZ-128 micelles were next examined in baboons at various time points after receiving different doses of intravenous infusions. […]
Non-terminal thrombosis and platelet aggregation studies were performed on 12 healthy male baboons (Papio anubis) weighing 9-12 kg at the Oregon National Primate Research Center (ONPRC). […] Platelet counts and hematocrit were measured immediately. […]

[4] = system: human whole blood (red blood cell lysis); test: Hemolysis of human whole blood; type: cell-based; conditions: up to 3.3 mg/mL in 5% dextrose, blood mixed 2:1; 40 min at 37° C.
Experimental: Fresh human whole blood (anticoagulated with 10 U heparin/mL) was mixed 2:1 with the various indicated dilutions of micelles of PZ-128 in 5% dextrose, incubated for 40 min at 37° C., and red blood cell lysis quantified by hemoglobin (Hb) release into the supernatant.
The PZ-128 micelle particles were solubilized in 5% dextrose/water at 10 mg/mL concentration and serially diluted with additional 5% dextrose/water to make stock solutions of 0.75, 1.5, 2.25, 3.0, 3.3 and 4.0 mg/mL PZ-128 in 5% dextrose water. Fresh human whole blood (anticoagulated with 10 U heparin/mL) was mixed 2:1 with the various dilutions of PZ-128 in 5% dextrose, incubated for 40 min at 37° C., and red blood cell lysis quantified by hemoglobin (Hb) release into the supernatant. […] The final pH of the PZ-128 micelles in 5% dextrose/water ranged from 6.75 to 7.13 at 1.25-10 mg/mL at room temperature.

With `CCCCCCCCCCCCCCCC(=O)N[C@@H](CCCCN)C(=O)N[C@@H](CCCCN)C(=O)N[C@@H](CO)C(=O)N[C@@H](CCCNC(=N)N)C(=O)N[C@@H](C)C(=O)N[C@@H](CC(C)C)C(=O)N[C@@H](Cc1ccccc1)C(N)=O` [PZ-128, palmitate-KKSRALF-NH2] (Palmitoyl-KKSRALF-NH2) the “Inhibitory activity against ADP aggregation” value [1] was “no inhibitory activity”, the “Effect on ex vivo aggregation to thromboxane mimetic U46119” value [2] was “no effect” and the “Inhibition of AYPGKF (PAR4) response ex vivo” value [3] was “no inhibition”. For the same compound, the “Hemolysis of human whole blood (Hb release)” value [4] was “no significant hemolysis”.
